Test results from PubChem BioAssay AID2060508 (Molecular Pharmacology Branch, DTP, NCI, 2025).

Tested on: 454973-116-R2-J3-PDC spheroids, viability, % test/control
Assay: Anticancer human tumor 454973-116-R2-J3-PDC patient-derived pancreatic carcinoma cell line growth inhibition [GQUAD]
Settings: spheroids with HUVEC and MSC; for IC50: curve of first compound; for viability, T/C: stronger effect = lower value
In short: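 Viability of tumor cells grown as complex spheroids with endothelial and stromal cells, exposed to drug combinations. Top concentration at or near clinical Cmax (else 10 microM), diluted in half-log increments.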

[1] = second compound 0.0316 µM, first compound 0.0316 µM
[2] = second compound 0.0316 µM, first compound 0.1 µM
[3] = second compound 0.0316 µM, first compound 0.316 µM
[4] = second compound 0.0316 µM, first compound 1 µM
[5] = second compound 0.0316 µM, first compound 3.16 µM
[6] = second compound 0.0316 µM, first compound 10 µM
[7] = second compound 0.1 µM, first compound 0.0316 µM
[8] = second compound 0.1 µM, first compound 0.1 µM
[9] = second compound 0.1 µM, first compound 0.316 µM
[10] = second compound 0.1 µM, first compound 1 µM
[11] = second compound 0.1 µM, first compound 3.16 µM
[12] = second compound 0.1 µM, first compound 10 µM
[13] = second compound 0.316 µM, first compound 0.0316 µM
[14] = second compound 0.316 µM, first compound 0.1 µM
[15] = second compound 0.316 µM, first compound 0.316 µM
[16] = second compound 0.316 µM, first compound 1 µM
[17] = second compound 0.316 µM, first compound 3.16 µM
[18] = second compound 0.316 µM, first compound 10 µM
[19] = second compound 1 µM, first compound 0.0316 µM
[20] = second compound 1 µM, first compound 0.1 µM
[21] = second compound 1 µM, first compound 0.316 µM
[22] = second compound 1 µM, first compound 1 µM
[23] = second compound 1 µM, first compound 3.16 µM
[24] = second compound 1 µM, first compound 10 µM
[25] = second compound 3.16 µM, first compound 0.0316 µM
[26] = second compound 3.16 µM, first compound 0.1 µM
[27] = second compound 3.16 µM, first compound 0.316 µM
[28] = second compound 3.16 µM, first compound 1 µM
[29] = second compound 3.16 µM, first compound 3.16 µM
[30] = second compound 3.16 µM, first compound 10 µM
[31] = second compound 10 µM, first compound 0.0316 µM
[32] = second compound 10 µM, first compound 0.1 µM
[33] = second compound 10 µM, first compound 0.316 µM
[34] = second compound 10 µM, first compound 1 µM
[35] = second compound 10 µM, first compound 3.16 µM
[36] = second compound 10 µM, first compound 10 µM
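Note: spheroids exposed to compounds for seven days.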
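Throughout, for viability, T/C: 100% = DMSO vehicle control viability.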

C#Cc1c(F)ccc2cc(O)cc(-c3ncc4c(N5CC6CCC(C5)N6)nc(OCC56CCCN5CC(F)C6)nc4c3F)c12 (stereo unspecified) + Cc1[nH]c2ccc(F)cc2c1-c1nc2c3cccnc3c3ncccc3c2[nH]1
IC50 (second compound 0.0316 µM): 0.0554 µM
IC50 (second compound 0.1 µM): 0.0722 µM
IC50 (second compound 0.316 µM): 0.0562 µM
IC50 (second compound 1 µM): 0.057 µM
IC50 (second compound 3.16 µM): 0.0346 µM
IC50 (second compound 10 µM): < 0.0316 µM
viability, T/C [1]: 59.5%
viability, T/C [2]: 40.2%
viability, T/C [3]: 27.5%
viability, T/C [4]: 25.1%
viability, T/C [5]: 21.5%
viability, T/C [6]: 15.5%
viability, T/C [7]: 63.5%
viability, T/C [8]: 43.4%
viability, T/C [9]: 34.5%
viability, T/C [10]: 24.4%
viability, T/C [11]: 21.9%
viability, T/C [12]: 17%
viability, T/C [13]: 57.2%
viability, T/C [14]: 45.2%
viability, T/C [15]: 27.7%
viability, T/C [16]: 23.9%
viability, T/C [17]: 29.6%
viability, T/C [18]: 17.5%
viability, T/C [19]: 58.6%
viability, T/C [20]: 41.8%
viability, T/C [21]: 29.8%
viability, T/C [22]: 22.9%
viability, T/C [23]: 17.6%
viability, T/C [24]: 15.4%
viability, T/C [25]: 52.1%
viability, T/C [26]: 35.5%
viability, T/C [27]: 27.2%
viability, T/C [28]: 21.1%
viability, T/C [29]: 19.6%
viability, T/C [30]: 12.8%
viability, T/C [31]: 48.1%
viability, T/C [32]: 36.9%
viability, T/C [33]: 26.2%
viability, T/C [34]: 17.6%
viability, T/C [35]: 16.8%
viability, T/C [36]: 12.3%

Cc1[nH]c2ccccc2c1CCNCc1ccc(/C=C/C(=O)NO)cc1 + Cc1[nH]c2ccc(F)cc2c1-c1nc2c3cccnc3c3ncccc3c2[nH]1
IC50 (second compound 0.0316 µM): 0.0743 µM
IC50 (second compound 0.1 µM): 0.0758 µM
IC50 (second compound 0.316 µM): 0.0775 µM
IC50 (second compound 1 µM): 0.0684 µM
IC50 (second compound 3.16 µM): 0.0728 µM
IC50 (second compound 10 µM): 0.0817 µM
viability, T/C (second compound 0.0316 µM, first compound 0.000999 µM): 107%
viability, T/C (second compound 0.0316 µM, first compound 0.00316 µM): 104%
viability, T/C (second compound 0.0316 µM, first compound 0.00999 µM): 104%
viability, T/C [1]: 85.7%
viability, T/C (second compound 0.0316 µM, first compound 0.0999 µM): 37.6%
viability, T/C [3]: 6.79%
viability, T/C (second compound 0.1 µM, first compound 0.000999 µM): 104%
viability, T/C (second compound 0.1 µM, first compound 0.00316 µM): 109%
viability, T/C (second compound 0.1 µM, first compound 0.00999 µM): 108%
viability, T/C [7]: 94.5%
viability, T/C (second compound 0.1 µM, first compound 0.0999 µM): 36%
viability, T/C [9]: 7.21%
viability, T/C (second compound 0.316 µM, first compound 0.000999 µM): 110%
viability, T/C (second compound 0.316 µM, first compound 0.00316 µM): 110%
viability, T/C (second compound 0.316 µM, first compound 0.00999 µM): 90.4%
viability, T/C [13]: 88.8%
viability, T/C (second compound 0.316 µM, first compound 0.0999 µM): 38.3%
viability, T/C [15]: 6.45%
viability, T/C (second compound 1 µM, first compound 0.000999 µM): 106%
viability, T/C (second compound 1 µM, first compound 0.00316 µM): 97.5%
viability, T/C (second compound 1 µM, first compound 0.00999 µM): 99.1%
viability, T/C [19]: 79.8%
viability, T/C (second compound 1 µM, first compound 0.0999 µM): 35.3%
viability, T/C [21]: 9.42%
viability, T/C (second compound 3.16 µM, first compound 0.000999 µM): 99.7%
viability, T/C (second compound 3.16 µM, first compound 0.00316 µM): 94.3%
viability, T/C (second compound 3.16 µM, first compound 0.00999 µM): 85.3%
viability, T/C [25]: 86.6%
viability, T/C (second compound 3.16 µM, first compound 0.0999 µM): 36.2%
viability, T/C [27]: 9.17%
viability, T/C (second compound 10 µM, first compound 0.000999 µM): 96.2%
viability, T/C (second compound 10 µM, first compound 0.00316 µM): 87.9%
viability, T/C (second compound 10 µM, first compound 0.00999 µM): 92.3%
viability, T/C [31]: 75.5%
viability, T/C (second compound 10 µM, first compound 0.0999 µM): 44.6%
viability, T/C [33]: 11%

O=C(NO)c1cnc(N2CCN(S(=O)(=O)c3ccc4ccccc4c3)CC2)nc1 + CN(C)c1ccc(Nc2c3ccc(NC(=O)CCN4CCCC4)cc3nc3cc(NC(=O)CCN4CCCC4)ccc23)cc1
IC50 (second compound 0.0316 µM): 0.212 µM
IC50 (second compound 0.1 µM): 0.202 µM
IC50 (second compound 0.316 µM): 0.197 µM
IC50 (second compound 1 µM): 0.195 µM
IC50 (second compound 3.16 µM): 0.178 µM
IC50 (second compound 10 µM): 0.141 µM
viability, T/C [1]: 107%
viability, T/C [2]: 89.7%
viability, T/C [3]: 28.9%
viability, T/C [4]: 3.06%
viability, T/C [5]: 0.12%
viability, T/C [6]: 1%
viability, T/C [7]: 102%
viability, T/C [8]: 83.4%
viability, T/C [9]: 28.9%
viability, T/C [10]: 2.6%
viability, T/C [11]: 0.1%
viability, T/C [12]: 0.19%
viability, T/C [13]: 86%
viability, T/C [14]: 83.4%
viability, T/C [15]: 26.8%
viability, T/C [16]: 3.25%
viability, T/C [17]: 0.11%
viability, T/C [18]: 0.17%
viability, T/C [19]: 81.4%
viability, T/C [20]: 77.2%
viability, T/C [21]: 30.3%
viability, T/C [22]: 3.47%
viability, T/C [23]: 0.09%
viability, T/C [24]: 0.35%
viability, T/C [25]: 77.8%
viability, T/C [26]: 70.8%
viability, T/C [27]: 29.4%
viability, T/C [28]: 2.84%
viability, T/C [29]: 0.54%
viability, T/C [30]: 0.91%
viability, T/C [31]: 59.5%
viability, T/C [32]: 55.8%
viability, T/C [33]: 34.1%
viability, T/C [34]: 2.57%
viability, T/C [35]: 0.19%
viability, T/C [36]: 0.77%
